Assay [1] concerns SR. Put plainly: Antiproliferative activity against ALK positive human SR cells. It counts as functional, cell-based.
For assay [2], the system named is SR. The assay can be described thus: Induction of cell cycle arrest in human SR cells assessed as increase in accumulation at G1/S phase at 100 nM incubated for 24 hrs. It counts as functional, cell-based.
In assay [3] the test system is SR. Put plainly: Induction of cell cycle arrest in human SR cells assessed as increase in accumulation at S phase at 100 nM incubated for 24 hrs. It counts as functional, cell-based.
Assay [4] deals with T1, Protein cereblon/ALK tyrosine kinase receptor (Homo sapiens, UniProt Q9UM73+Q96SW2). Put plainly: Protac activity at CRBN/ALK in human SR cells assessed as protein abundance at 5 nM by Western blot analysis (reference value: 1). It counts as cell-based.
T1 sequence (Q96SW2 whole entry partner): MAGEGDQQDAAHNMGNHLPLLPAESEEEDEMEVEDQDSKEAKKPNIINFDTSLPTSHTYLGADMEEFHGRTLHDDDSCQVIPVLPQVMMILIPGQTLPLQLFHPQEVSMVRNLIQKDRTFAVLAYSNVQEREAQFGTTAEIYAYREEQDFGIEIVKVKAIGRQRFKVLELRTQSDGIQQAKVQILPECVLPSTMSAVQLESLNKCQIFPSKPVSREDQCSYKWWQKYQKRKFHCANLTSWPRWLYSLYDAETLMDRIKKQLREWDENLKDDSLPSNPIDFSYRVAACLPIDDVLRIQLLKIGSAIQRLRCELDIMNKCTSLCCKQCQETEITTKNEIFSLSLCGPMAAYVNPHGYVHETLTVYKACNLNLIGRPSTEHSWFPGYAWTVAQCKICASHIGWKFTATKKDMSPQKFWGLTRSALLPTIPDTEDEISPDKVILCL
T1 sequence (Q9UM73 19-1620 limits assumed): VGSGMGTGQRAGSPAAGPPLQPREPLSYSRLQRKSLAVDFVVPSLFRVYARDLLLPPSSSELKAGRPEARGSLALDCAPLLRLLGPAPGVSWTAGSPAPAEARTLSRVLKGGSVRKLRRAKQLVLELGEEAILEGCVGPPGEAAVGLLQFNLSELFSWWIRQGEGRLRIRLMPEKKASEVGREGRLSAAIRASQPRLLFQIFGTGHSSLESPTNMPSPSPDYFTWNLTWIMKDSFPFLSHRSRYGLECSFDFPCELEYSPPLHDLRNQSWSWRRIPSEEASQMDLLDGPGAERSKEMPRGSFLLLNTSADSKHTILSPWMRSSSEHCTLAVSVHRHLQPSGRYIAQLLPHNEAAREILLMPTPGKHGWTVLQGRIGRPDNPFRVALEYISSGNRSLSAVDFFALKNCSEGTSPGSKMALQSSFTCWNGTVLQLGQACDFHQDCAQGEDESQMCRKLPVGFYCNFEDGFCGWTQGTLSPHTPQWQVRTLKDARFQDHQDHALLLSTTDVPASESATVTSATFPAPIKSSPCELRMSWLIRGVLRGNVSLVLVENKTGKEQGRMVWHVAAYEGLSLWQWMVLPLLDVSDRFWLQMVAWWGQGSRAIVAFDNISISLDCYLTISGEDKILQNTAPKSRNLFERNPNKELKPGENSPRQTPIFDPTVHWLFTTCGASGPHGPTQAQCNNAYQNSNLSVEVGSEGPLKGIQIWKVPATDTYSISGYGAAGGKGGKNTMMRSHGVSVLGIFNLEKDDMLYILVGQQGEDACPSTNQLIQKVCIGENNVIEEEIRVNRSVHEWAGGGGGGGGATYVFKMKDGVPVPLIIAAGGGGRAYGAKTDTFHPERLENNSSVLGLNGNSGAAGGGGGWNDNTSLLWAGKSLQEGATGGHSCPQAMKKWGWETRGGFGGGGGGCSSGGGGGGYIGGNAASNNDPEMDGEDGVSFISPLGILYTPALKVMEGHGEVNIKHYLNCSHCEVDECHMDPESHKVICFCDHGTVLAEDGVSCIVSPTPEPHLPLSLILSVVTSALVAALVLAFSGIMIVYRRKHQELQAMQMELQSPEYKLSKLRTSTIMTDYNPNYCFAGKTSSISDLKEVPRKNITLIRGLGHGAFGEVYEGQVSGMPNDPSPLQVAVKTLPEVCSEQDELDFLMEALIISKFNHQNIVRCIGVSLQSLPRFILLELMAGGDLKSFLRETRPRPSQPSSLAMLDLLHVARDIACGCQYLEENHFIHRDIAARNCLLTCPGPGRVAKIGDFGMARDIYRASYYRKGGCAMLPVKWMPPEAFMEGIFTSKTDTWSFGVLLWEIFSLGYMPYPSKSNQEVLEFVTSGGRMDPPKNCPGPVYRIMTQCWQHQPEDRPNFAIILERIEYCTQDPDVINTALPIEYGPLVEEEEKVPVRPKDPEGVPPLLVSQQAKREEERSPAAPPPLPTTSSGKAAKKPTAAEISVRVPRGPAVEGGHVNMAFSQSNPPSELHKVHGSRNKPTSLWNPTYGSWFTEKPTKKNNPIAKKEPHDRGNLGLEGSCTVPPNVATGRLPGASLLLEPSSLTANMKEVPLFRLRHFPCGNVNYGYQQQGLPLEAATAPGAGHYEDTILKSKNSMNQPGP
Assay [5] has as its target T1, Protein cereblon/ALK tyrosine kinase receptor. The assay can be described thus: Protac activity at CRBN/ALK in human SR cells assessed as protein abundance at 0.05 nM by Western blot analysis (reference value: 1). It counts as cell-based.
Assay [6] shares this target. The assay can be described thus: Protac activity at CRBN/ALK in human SR cells assessed as protein abundance at 50 nM by Western blot analysis (reference value: 1). It counts as cell-based.
Assay [7] has the same target. The assay can be described thus: Protac activity at CRBN/ALK in human SR cells assessed as protein abundance at 500 nM by Western blot analysis (reference value: 1). It counts as cell-based.
The target is the same in assay [8]. Put plainly: Protac activity at CRBN/ALK in human SR cells assessed as protein abundance at 0.5 nM by Western blot analysis (reference value: 1). It counts as cell-based.
Assay [9] has as its target T2, von Hippel-Lindau disease tumor suppressor/ALK tyrosine kinase receptor (Homo sapiens) (UniProt Q9UM73+P40337). Put plainly: Protac activity at VHL1/ALK in human SR cells assessed as increase in ALK degradation at 500 nM by Western blot analysis. It counts as cell-based.
The target of assay [10] is T2, von Hippel-Lindau disease tumor suppressor/ALK tyrosine kinase receptor (Homo sapiens). The assay can be described thus: Protac activity at VHL/ALK in human SR cells assessed as protein abundance at 50 nM by Western blot analysis (reference value: 1). It counts as cell-based.
Assay [11] has the same target. Put plainly: Protac activity at VHL/ALK in human SR cells assessed as protein abundance at 0.05 nM by Western blot analysis (reference value: 1). It counts as cell-based.
Assay [12] has the same target. Put plainly: Protac activity at VHL/ALK in human SR cells assessed as protein abundance at 0.5 nM by Western blot analysis (reference value: 1). It counts as cell-based.
Assay [13] has the same target. Put plainly: Protac activity at VHL/ALK in human SR cells assessed as protein abundance at 5 nM by Western blot analysis (reference value: 1). It counts as cell-based.
Assay [14] shares this target. Put plainly: Protac activity at VHL/ALK in human SR cells assessed as protein abundance at 500 nM by Western blot analysis (reference value: 1). It counts as cell-based.
Assay [15] concerns the target T1, Protein cereblon/ALK tyrosine kinase receptor. The assay can be described thus: Protac activity at CRBN/ALK in human SR cells assessed as increase in ALK degradation at 500 nM by Western blot analysis. It counts as cell-based.

pIC50: −log10 of the molar value. Active and inactive are the calls of the source. No cut-off for these calls is given here.

T2 sequence (P40337 whole entry partner): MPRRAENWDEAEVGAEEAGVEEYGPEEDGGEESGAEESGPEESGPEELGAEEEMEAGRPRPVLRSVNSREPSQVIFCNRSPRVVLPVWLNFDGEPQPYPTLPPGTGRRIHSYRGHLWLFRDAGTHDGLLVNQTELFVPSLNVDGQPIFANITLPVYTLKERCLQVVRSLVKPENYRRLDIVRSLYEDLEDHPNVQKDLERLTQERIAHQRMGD
T2 sequence (Q9UM73 19-1620 limits assumed): as the sequence (Q9UM73 19-1620 limits assumed) above

Consider `CCc1cc2c(cc1N1CCC(NC(=O)CCCCCNc3cccc4c3C(=O)N(C3CCC(=O)NC3=O)C4=O)CC1)C(C)(C)c1[nH]c3cc(C#N)ccc3c1C2=O` (stereo not drawn), for which the pIC50 in assay [1] was 8.42. Turning to `CCc1cc2c(cc1N1CCC(N3CCOCC3)CC1)C(C)(C)c1[nH]c3cc(C#N)ccc3c1C2=O` [ALECTINIB], the outcome in assay [2] and in [3] was Active. In [1], this compound had a pIC50 of 8.47. The compound `CCc1cc2c(cc1N1CCC(N3CCNCC3)CC1)C(C)(C)c1[nH]c3cc(C#N)ccc3c1C2=O` had a pIC50 in assay [1] of 8.31.

Regarding `Cc1cc(Nc2ncc(Cl)c(Nc3ccccc3S(=O)(=O)C(C)C)n2)c(OC(C)C)cc1C1CCN(C(=O)NCCOCCOCCOCCOCCOCCNC(=O)CNc2cccc3c2C(=O)N(C2CCC(=O)NC2=O)C3=O)CC1` (stereo not drawn), the negative logarithm of the IC50 (pIC50) in assay [1] was 7.86.

As to `COc1cc(N2CCC(NC(=O)CCCCCCCCCC(=O)N[C@@H](C(=O)N3C[C@H](O)C[C@H]3C(=O)NCc3ccc(-c4scnc4C)cc3)C(C)(C)C)CC2)ccc1Nc1ncc(Cl)c(Nc2ccccc2P(C)(C)=O)n1`, in [1], the pIC50 was 8.96. The same measure, in the same setting: the result for `CCc1cc2c(cc1N1CCC(NC(=O)CNc3cccc4c3C(=O)N(C3CCC(=O)NC3=O)C4=O)CC1)C(C)(C)c1[nH]c3cc(C#N)ccc3c1C2=O` (stereo not drawn) reads 7.87; that for `CCc1cc2c(cc1N1CCC(N3CCN(CCCCCCC#Cc4cccc5c4CN(C4CCC(=O)NC4=O)C5=O)CC3)CC1)C(C)(C)c1[nH]c3cc(C#N)ccc3c1C2=O` (stereo not drawn), 8.80; that for `CCc1cc2c(cc1N1CCC(N3CCN(C(=O)CCCCCCNc4cccc5c4CN(C4CCC(=O)NC4=O)C5=O)CC3)CC1)C(C)(C)c1[nH]c3cc(C#N)ccc3c1C2=O` (stereo not drawn), 8.04. The same measure, in the same setting: the result for `CCc1cc2c(cc1N1CCC(N3CCN(C(=O)CCCCNc4cccc5c4CN(C4CCC(=O)NC4=O)C5=O)CC3)CC1)C(C)(C)c1[nH]c3cc(C#N)ccc3c1C2=O` (stereo not drawn) reads 8.33. Take `CCc1cc2c(cc1N1CCC(N3CCN(C(=O)CCCNc4cccc5c4CN(C4CCC(=O)NC4=O)C5=O)CC3)CC1)C(C)(C)c1[nH]c3cc(C#N)ccc3c1C2=O` (stereo not drawn): the pIC50 in assay [1] is 8.48.

Take `CCc1cc2c(cc1N1CCC(N)CC1)C(C)(C)c1[nH]c3cc(C#N)ccc3c1C2=O`: the pIC50 in assay [1] was 8.55.

As for `CCc1cc2c(cc1N1CCC(N3CCN(CCCCCC#Cc4cccc5c4CN(C4CCC(=O)NC4=O)C5=O)CC3)CC1)C(C)(C)c1[nH]c3cc(C#N)ccc3c1C2=O` (stereo not drawn), the Activity in assay [4] was 0.76; in assay [5], 1.08; in assay [6], 0.67; in [7], 0.69; in [8], 1.09. The pIC50 in assay [1] is 8.74. `CCc1cc2c(cc1N1CCC(NC(=O)CCOCCOCCOCCOCCNc3cccc4c3C(=O)N(C3CCC(=O)NC3=O)C4=O)CC1)C(C)(C)c1[nH]c3cc(C#N)ccc3c1C2=O` (stereo not drawn) gave a pIC50 in assay [1] of 8.23.

`CCc1cc2c(cc1N1CCC(NC(=O)CCCNc3cccc4c3C(=O)N(C3CCC(=O)NC3=O)C4=O)CC1)C(C)(C)c1[nH]c3cc(C#N)ccc3c1C2=O` (stereo not drawn) gave a pIC50 in assay [1] of 8.09. The compound `CCc1cc2c(cc1N1CCC(N3CCN(C(=O)CCCCCCCCC(=O)NC(C(=O)N4C[C@H](O)C[C@H]4C(=O)NCc4ccc(-c5scnc5C)cc4)C(C)(C)C)CC3)CC1)C(C)(C)c1[nH]c3cc(C#N)ccc3c1C2=O` (single isomer, unassigned) had a pIC50 in assay [1] of 7.74. Besides, the outcome in assay [9] was Active. As for `Cc1cc(Nc2ncc(Cl)c(Nc3ccccc3S(=O)(=O)C(C)C)n2)c(OC(C)C)cc1C1CCN(CCOCCOCCNC(=O)CNc2cccc3c2C(=O)N(C2CCC(=O)NC2=O)C3=O)CC1` (stereo not drawn), in assay [1], the pIC50 was 8.23.

The compound `Cc1cc(Nc2ncc(Cl)c(Nc3ccccc3S(=O)(=O)C(C)C)n2)c(OC(C)C)cc1C1CCN(C(=O)NCCNC(=O)CNc2cccc3c2C(=O)N(C2CCC(=O)NC2=O)C3=O)CC1` (stereo not drawn) showed a pIC50 in assay [1] of 8.07. Still for that read-out and setting: the result for `CCc1cc2c(cc1N1CCC(N3CCN(CCCCCCCC#Cc4cccc5c4CN(C4CCC(=O)NC4=O)C5=O)CC3)CC1)C(C)(C)c1[nH]c3cc(C#N)ccc3c1C2=O` (stereo not drawn) reads 8.48; that for `CCc1cc2c(cc1N1CCC(N3CCN(C(=O)CCOCCOCCNc4cccc5c4C(=O)N(C4CCC(=O)NC4=O)C5=O)CC3)CC1)C(C)(C)c1[nH]c3cc(C#N)ccc3c1C2=O` (stereo not drawn), 8.60. Consider `CCc1cc2c(cc1N1CCC(N3CCN(C(=O)CCCCCNc4cccc5c4CN(C4CCC(=O)NC4=O)C5=O)CC3)CC1)C(C)(C)c1[nH]c3cc(C#N)ccc3c1C2=O` (stereo not drawn), for which, in assay [1], the pIC50 is 8.40. Consider `CCc1cc2c(cc1N1CCC(N3CCN(C(=O)CCCCC(=O)NC(C(=O)N4C[C@H](O)C[C@H]4C(=O)NCc4ccc(-c5scnc5C)cc4)C(C)(C)C)CC3)CC1)C(C)(C)c1[nH]c3cc(C#N)ccc3c1C2=O` (single isomer, unassigned), for which the Activity in assay [10] is 0.93; in assay [11], 0.96; in [12], 1.14; in [13] it was 1.04; in assay [14], 0.43. Moreover, in [1], the pIC50 is 7.49. For the same compound, the outcome in [9] was Active. For the compound `CCc1cc2c(cc1N1CCN(C(=O)CCCNc3cccc4c3C(=O)N(C3CCC(=O)NC3=O)C4=O)CC1)C(C)(C)c1[nH]c3cc(C#N)ccc3c1C2=O` (stereo not drawn), in assay [1], the pIC50 was 8.04. Consider `CCc1cc2c(cc1N1CCC(NC(=O)CCOCCOCCNc3cccc4c3C(=O)N(C3CCC(=O)NC3=O)C4=O)CC1)C(C)(C)c1[nH]c3cc(C#N)ccc3c1C2=O` (stereo not drawn), for which, in assay [1], the pIC50 was 7.92.

`COc1cc(N2CCC(N3CCN(C)CC3)CC2)ccc1Nc1ncc(Cl)c(Nc2ccccc2P(C)(C)=O)n1` [BRIGATINIB]: the pIC50 in assay [1] was 8.72. Regarding `Cc1cc(Nc2ncc(Cl)c(Nc3ccccc3S(=O)(=O)C(C)C)n2)c(OC(C)C)cc1C1CCNCC1` [CERITINIB], in [1], the negative-log IC50 (pIC50) is 8.66. `CCc1cc2c(cc1N1CCC(N3CCN(C(=O)CNc4cccc5c4C(=O)N(C4CCC(=O)NC4=O)C5=O)CC3)CC1)C(C)(C)c1[nH]c3cc(C#N)ccc3c1C2=O` (stereo not drawn): in assay [1], the pIC50 was 8.39. The outcome in assay [9] was Active. In assay [1], `CCc1cc2c(cc1N1CCC(N3CCN(C(=O)CCCCCNc4cccc5c4C(=O)N(C4CCC(=O)NC4=O)C5=O)CC3)CC1)C(C)(C)c1[nH]c3cc(C#N)ccc3c1C2=O` (stereo not drawn) showed a pIC50 of 8.47. Take `CCc1cc2c(cc1N1CCN(C(=O)CNc3cccc4c3C(=O)N(C3CCC(=O)NC3=O)C4=O)CC1)C(C)(C)c1[nH]c3cc(C#N)ccc3c1C2=O` (stereo not drawn): the Activity was 0.89 in assay [4]; 1.17 in [5]; 0.66 in [6]; 0.43 in assay [7]; 1.12 in [8]. This compound also showed a pIC50 in assay [1] of 8.49. For the same compound, the outcome in [15] was Active. Turning to `CCc1cc2c(cc1N1CCNCC1)C(C)(C)c1[nH]c3cc(C#N)ccc3c1C2=O`, the pIC50 in [1] is 9.10. In [1], `CCc1cc2c(cc1N1CCN(C(=O)CCCCCNc3cccc4c3C(=O)N(C3CCC(=O)NC3=O)C4=O)CC1)C(C)(C)c1[nH]c3cc(C#N)ccc3c1C2=O` (stereo not drawn) gave a pIC50 of 7.82. For `CCc1cc2c(cc1N1CCC(N3CCN(C(=O)CCOCCOCCOCCOCCNc4cccc5c4C(=O)N(C4CCC(=O)NC4=O)C5=O)CC3)CC1)C(C)(C)c1[nH]c3cc(C#N)ccc3c1C2=O` (stereo not drawn), the Activity in [4] was found to be 0.96; in assay [5], 1.01; in assay [6], 0.7; in [7], 0.53; in assay [8], 1.03. The compound also had a negative logarithm of the IC50 (pIC50) in [1] of 8.51. Besides, in assay [15], the result was Active. The compound `CCc1cc2c(cc1N1CCC(N3CCN(CCCCC#Cc4cccc5c4CN(C4CCC(=O)NC4=O)C5=O)CC3)CC1)C(C)(C)c1[nH]c3cc(C#N)ccc3c1C2=O` (stereo not drawn) had a pIC50 in assay [1] of 8.92. On to `CCc1cc2c(cc1N1CCC(N3CCN(C(=O)CCCNc4cccc5c4C(=O)N(C4CCC(=O)NC4=O)C5=O)CC3)CC1)C(C)(C)c1[nH]c3cc(C#N)ccc3c1C2=O` (stereo not drawn), for which the Activity in assay [4] turned out to be 0.66; in assay [5], 1.05; in [6], 0.55; in assay [7], 0.47; in assay [8], 0.82. In assay [1], this compound showed a negative logarithm of the IC50 (pIC50) of 7.89. Also, the result in assay [15] was Active. In the case of `CCc1cc2c(cc1N1CCN(C(=O)CCOCCOCCNc3cccc4c3C(=O)N(C3CCC(=O)NC3=O)C4=O)CC1)C(C)(C)c1[nH]c3cc(C#N)ccc3c1C2=O` (stereo not drawn), the pIC50 in assay [1] was 7.51. In the case of `CCc1cc2c(cc1N1CCN(C(=O)CCOCCOCCOCCOCCNc3cccc4c3C(=O)N(C3CCC(=O)NC3=O)C4=O)CC1)C(C)(C)c1[nH]c3cc(C#N)ccc3c1C2=O` (stereo not drawn), in assay [1], the pIC50 was 7.92.

The values are drawn from ChEMBL document CHEMBL4814007, “Structure-based discovery of SIAIS001 as an oral bioavailability ALK degrader constructed from Alectinib” (Eur J Med Chem, 2021).
